According to US20020122768A1, “Stable radiopharmaceutical compositions and methods for preparation thereof” (priority 2000, published 2002):

Assay: Solution stability of ^90Y-B at −78° C., RCP by radio-HPLC
Assay type: physicochemical
Details: ^90Y-B prepared with GA; for RCP (%) t = 0 / RCP (%) t = 3 days / RCP (%) t = 7 days: degassed, second stabilizer (20 mg AA, 20 mg DSA, 10 mg 2,3,4-THBA, 10 mg HABA) added post-labeling; for RCP (%) change: second stabilizer added post-labeling, t = 0 to 7 days
Method: The integrity of a radiopharmaceutical is measured by the radiochemical purity (RCP) of the radiolabeled compound using ITLC or more preferably HPLC. The advantage of using HPLC is that radio-impurities caused by radiolytic degradation can be separated from the radiopharmaceutical under optimized chromatographic conditions. […] The radiopharmaceutical compositions of this invention are effective in maintaining the long-term stability of samples that have been frozen, thawed, and re-tested periodically for 7 days.
The initial RCP of a radiopharmaceutical is largely dependent on radiolabeling conditions such as pH, heating temperature and time. Once a radiopharmaceutical is prepared in high yield, the stability of the radiopharmaceutical composition is measured by the` RCP change of the radiopharmaceutical over a certain period of time. For comparison purposes, sodium gentisate or sodium ascorbate was often used as the reference since they have been used in various radiopharmaceutical formulations.
HPLC method 2 used a HP-1100 HPLC system with a UV/visible detector (λ=220 nm), an IN-US radio-detector, and a Zorbax C18 column (4.6 mm×250 mm, 80 Å pore size). The flow rate was 1 mL/min with a gradient mobile phase starting from 92% solvent A (0.025 M ammonium acetate buffer, pH 6.8) and 8% solvent B (acetonitrile) at 0 min to 90% solvent A and 10% solvent B at 18 min, followed by an isocratic wash using 40% of solvent A and 60% solvent B from 19 to 25 min.
The ITLC method used Gelman Sciences silica-gel ITLC paper strips and 1:1 mixture of acetone and saline as eluant. By this method, the radiolabeled compounds migrate to the solvent front while [^90Y]/^177Lu]colloid and [^90Y]/^177Lu]acetate remain at the origin. […]
The 0.5 M ammonium acetate buffer (pH 8.0) was first degassed under vacuum for 1-2 min. COMPOUND B and gentisic acid (sodium salt, GA) were dissolved in the degassed buffer to give a concentration of 100 μg/mL for COMPOUND B and 20 mg/mL for GA. The resulting solution was immediately degassed under vacuum for another 1-2 min. To a clean sealed 5 mL vial was added 1.0 mL of the degassed 0.5 M ammonium acetate buffer (pH 8.0) containing 100 μg COMPOUND B and 10 mg GA. The solution was degassed again under vacuum. Upon addition of ˜20 μL of ^90YCl3 solution (˜20 mCi) in 0.05 N HCl, the reaction mixture was heated at 100° C. for 5 min. After cooling to room temperature, a sample of the resulting solution was diluted 20-fold with saline containing gentisate (10 mg/mL), and was then analyzed by HPLC (Method 2, injection volume=1-2 μL) and ITLC. […] To the solution above was added 0.5 mL of sodium ascorbate solution (40 mg/mL in 0.5 M ammonium acetate buffer, pH=7.4). The resulting mixture was then kept in a dry-ice box (−78° C.) for 7 days. Samples were analyzed at t=0, 3 and 7 days.
The 0.5 M ammonium acetate buffer (pH 8.0) was first degassed under vacuum for 1-2 min. COMPOUND B and gentisic acid (sodium salt, GA) were dissolved in the degassed buffer to give a concentration of 100 μg/mL for COMPOUND B and 20 mg/mL for GA. The resulting solution was immediately degassed under vacuum for another 1-2 min. To a clean sealed 5 mL vial was added 1.0 mL of the degassed 0.5 M ammonium acetate buffer (pH 8.0) containing 100 μg COMPOUND B and 10 mg GA. The solution was degassed again under vacuum. Upon addition of ˜20 μL of ^90YCl3 solution (˜20 mCi) in 0.05 N HCl, the reaction mixture was heated at 100° C. for 5 min. After cooling to room temperature, a sample of the resulting solution was diluted 20-fold with saline containing gentisate (10 mg/mL), and was then analyzed by HPLC (Method 2, injection volume=1-2 μL) and ITLC. […] To the solution above was added 0.5 mL of 2,3,4-trihydroxybenzoic acid solution (20 mg/mL in 0.5 M ammonium acetate buffer, pH=6.5). The resulting mixture was then kept in a dry-ice box (−78° C.) for 7 days. Samples were analyzed at t=0, 3 and 7 days. […]

| RCP (%) t = 0 | RCP (%) t = 3 days | RCP (%) t = 7 days | RCP (%) change | Compound |
| --- | --- | --- | --- | --- |
| 94.4% | 94.8% | 94.5% | 0.1% | 2,4-disulfonatobenzeneamine [DSA] |
| 94.2% | 93.6% | 93.9% | 0.3% | O=C(O)c1ccc(O)c(O)c1O [2,3,4-THBA, 2,3,4-trihydroxybenzoic acid] |
